In the first assay the target is Dipeptidyl peptidase 4 (Homo sapiens, UniProt P27487).
Chain of Dipeptidyl peptidase 4 (P27487 whole entry): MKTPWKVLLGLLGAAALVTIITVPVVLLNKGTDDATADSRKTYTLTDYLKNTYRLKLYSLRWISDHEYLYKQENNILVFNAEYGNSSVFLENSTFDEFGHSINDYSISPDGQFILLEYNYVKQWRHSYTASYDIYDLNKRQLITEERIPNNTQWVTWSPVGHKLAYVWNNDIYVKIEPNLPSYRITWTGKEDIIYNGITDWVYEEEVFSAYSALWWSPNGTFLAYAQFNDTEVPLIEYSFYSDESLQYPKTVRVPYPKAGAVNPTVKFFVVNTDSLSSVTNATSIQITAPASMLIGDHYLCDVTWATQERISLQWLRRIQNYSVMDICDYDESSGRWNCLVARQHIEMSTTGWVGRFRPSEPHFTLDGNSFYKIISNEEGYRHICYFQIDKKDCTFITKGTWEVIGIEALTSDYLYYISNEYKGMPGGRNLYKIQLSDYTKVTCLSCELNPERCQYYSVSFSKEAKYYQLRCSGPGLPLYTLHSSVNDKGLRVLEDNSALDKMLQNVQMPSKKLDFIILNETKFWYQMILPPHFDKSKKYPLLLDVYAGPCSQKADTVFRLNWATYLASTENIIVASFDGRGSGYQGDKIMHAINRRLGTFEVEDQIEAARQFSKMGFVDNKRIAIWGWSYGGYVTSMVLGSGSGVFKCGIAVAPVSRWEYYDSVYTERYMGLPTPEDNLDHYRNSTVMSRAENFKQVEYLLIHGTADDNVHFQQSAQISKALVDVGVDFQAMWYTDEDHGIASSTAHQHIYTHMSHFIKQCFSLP
As a reminder, the IC50 is the concentration needed to halve the response being measured. Low values mean greater potency in that assay, high ones weaker potency in that assay. `N#C[C@@H]1CCCN1C(=O)[C@@H](N)CC(=O)N1CCc2ccccc2C1` yielded an IC50 of 99 nM. In other words, the double-digit nanomolar range.

For the molecule `CC(C)(C)C(NC(=O)C[C@H](N)C(=O)N1CCC[C@H]1C#N)c1ccccc1` (stereo not given in full), the midpoint of inhibition, the IC50, lay at 251 nM.

The molecule `CCC(NC(=O)C[C@H](N)C(=O)N1CCC[C@H]1C#N)c1ccccc1` (stereo not given in full) registered a half-maximal inhibitory concentration (IC50) of 140 nM.

The molecule `N#C[C@@H]1CCCN1C(=O)[C@@H](N)CC(=O)N1CCN(C(=O)c2ccccc2)CC1` registered an IC50 of 123 nM.

The molecule `COc1cc2c(cc1OC)C(Cc1ccccc1)N(C(=O)C[C@H](N)C(=O)N1CCC[C@H]1C#N)CC2` (stereo not given in full) returned a half-maximal inhibitory concentration (IC50) of 97 nM.

`CC(C)C(NC(=O)C[C@H](N)C(=O)N1CCC[C@H]1C#N)c1ccccc1` (stereo not given in full): the IC50 turned out to be 212 nM.

`COc1ccc(CCNC(=O)C[C@H](N)C(=O)N2CCC[C@H]2C#N)cc1OC` gave a half-inhibitory concentration (IC50) of 116 nM.

For the molecule `COc1ccc2c(c1)C(C(C)(C)C)N(C(=O)C[C@H](N)C(=O)N1CCC[C@H]1C#N)CC2` (stereo not given in full), the IC50 amounted to 195 nM.

With `COc1cc2c(cc1OC)C(C(C)C)N(C(=O)C[C@H](N)C(=O)N1CCC[C@H]1C#N)CC2` (stereo not given in full), the 50% inhibitory concentration (IC50) is 47 nM.

With `COCC(Cc1ccccc1)NC(=O)C[C@H](N)C(=O)N1CCC[C@H]1C#N` (stereo not given in full), inhibition was half-maximal at 182 nM (IC50).

For the molecule `COc1cc2c(cc1OC)C(CCO)N(C(=O)C[C@H](N)C(=O)N1CCC[C@H]1C#N)CC2` (stereo not given in full), half-maximal inhibition (IC50) required 45 nM.

`CC(C)C(Cc1ccccc1)NC(=O)C[C@H](N)C(=O)N1CCC[C@H]1C#N` (stereo not given in full): the IC50 is 305 nM.

The molecule `COc1ccc2c(c1)CCN(C(=O)C[C@H](N)C(=O)N1CCC[C@H]1C#N)C2C(C)(C)C` (stereo not given in full) gave an IC50 of 72 nM.

Consider `N#C[C@@H]1CCCN1C(=O)[C@@H](N)CC(=O)NC(Cc1ccccc1)c1ccccc1` (stereo not given in full), for which the IC50 was found to be 252 nM.

Turning to `N#C[C@@H]1CCCN1C(=O)[C@@H](N)CC(=O)N1CCN(C(c2ccc(F)cc2)c2ccc(F)cc2)CC1`, the IC50 was 227 nM.

In turn, `N#Cc1ccc[n+](N2CCN(C(=O)C[C@H](N)C(=O)N3CCC[C@H]3C#N)CC2)c1` had an IC50 of 87 nM.

With `N#C[C@@H]1CCCN1C(=O)[C@@H](N)CC(=O)NCc1ccccc1`, the IC50 was 238 nM.

`COc1cc2c(cc1OC)CN(C(=O)C[C@H](N)C(=O)N1CCC[C@H]1C#N)CC2`: the IC50 was determined as 63 nM.

Regarding `COc1cc2c(cc1OC)C(C(C)(C)C)N(C(=O)C[C@H](N)C(=O)N1CCC[C@H]1C#N)CC2` (stereo not given in full), the concentration for half-maximal inhibition (IC50) came to 73 nM.

The target of the next assay is Dipeptidyl peptidase 2 (Homo sapiens, UniProt Q9UHL4). As to the kind of experiment: Inhibitory concentration against DPP-II [Quiescent cell proline dipeptidase] or DPP-VII.
Turning to `COc1cc2c(cc1OC)CN(C(=O)C[C@H](N)C(=O)N1CCC[C@H]1C#N)CC2`, the IC50 turned out to be 31300 nM.

Values taken from ChEMBL document CHEMBL1140240, “Glutamic acid analogues as potent dipeptidyl peptidase IV and 8 inhibitors” (Bioorg Med Chem Lett, 2005).
